Reference: the RepoRT retention time repository (doi:10.1038/s41586-021-03707-9)

How the values were obtained:
[1] = RP, Waters ACQUITY UPLC HSS C18, 100 × 2.1 mm, 1.7 µm, 40 °C, 0.35 mL/min, estimated dead time 0.63 min; A: water + 0.1% formic acid; B: methanol + 0.1% formic acid; gradient (min/%B) 0/0.5 4/70 4.5/98 5.4/98; conditions: stereoisomer not certain
[2] = Waters ACQUITY UPLC BEH C18, 100 × 2.1 mm, 1.7 µm, 40 °C, 0.28 mL/min, estimated dead time 0.63 min; A: water + 6.5 mM ammonium hydroxide; B: methanol + 6.5 mM ammonium hydroxide; gradient (min/%B) 0/0.5 4/70 4.5/98 5.4/98; conditions: stereoisomer not certain

Row | SMILES | LC retention time [1] | LC retention time [2]
1 | NC(N)=NCCCC(=O)O | 1.11 min | 0.91 min
2 | Cc1cccc(C(=O)O)c1O | 5.29 min | 3.44 min
3 | CC(=O)NCCCC(=O)O | 1.95 min | 0.923 min
4 | OCC1OC(OC2C(CO)OC(OC3C(CO)OC(O)C(O)C3O)C(O)C2O)C(O)C(O)C1O (stereo not given) | 0.847 min | 0.851 min
5 | CCOC(=O)C(N)Cc1c[nH]c2ccccc12 (stereo not given) | 3.82 min | 5.01 min
6 | CC12CCC(=O)C=C1CCC1C2C(=O)CC2(C)C1CCC2(O)C(=O)CO (stereo not given) | 4.87 min | 5.05 min
7 | COc1cccc(OC)c1C(=O)O | 3.65 min | 2.18 min
8 | Cc1cn(C2CC(O)C(COP(=O)(O)O)O2)c(=O)[nH]c1=O (stereo not given) | 1.76 min | 0.908 min
9 | CCCCCCCC(=O)NCC(=O)O | 5.22 min | 4.67 min
10 | O=C1OC(C(O)CO)C(O)C1O (stereo not given) | 0.804 min | 0.822 min
11 | NCCc1ccc(O)cc1 | 1.7 min | 2.22 min
12 | O=c1ccn(C2CC(O)C(CO)O2)c(=O)[nH]1 (stereo not given) | 1.85 min | 1.87 min
13 | Cc1cc2nc3c(=O)[nH]c(=O)nc-3n(CC(O)C(O)C(O)CO)c2cc1C (stereo not given) | 3.5 min | 3.61 min
14 | O=c1ccc2cc(OC3OC(CO)C(O)C(O)C3O)c(O)cc2o1 (stereo not given) | 2.78 min | 2.17 min
15 | NC(=O)NC1NC(=O)NC1=O (stereo not given) | 0.855 min | 0.799 min
16 | CC1C(=O)Nc2ccccc21 (stereo not given) | 4.43 min | 4.59 min
17 | CC(=O)NC(Cc1ccccc1)C(=O)O (stereo not given) | 3.99 min | 2.99 min
18 | OCC1OC(OC2(CO)OC(CO)C(O)C2O)C(O)C(O)C1O (stereo not given) | 0.86 min | 0.962 min
19 | COc1cc(CC(=O)O)ccc1O | 3.42 min | 1.89 min
20 | NC(Cc1c[nH]c2ccc(O)cc12)C(=O)O (stereo not given) | 1.97 min | 1.9 min
21 | Cn1c(=O)[nH]c2ncn(C)c2c1=O | 2.8 min | 2.68 min
22 | NC(=O)Cc1c[nH]c2ccccc12 | 3.52 min | 3.63 min
23 | O=C(O)C(O)c1ccc(O)cc1 (stereo not given) | 3.64 min | 0.823 min
24 | O=C(O)CN(CCO)CCO | 0.765 min | 0.874 min
25 | CC1NC(=O)NC1CCCCCC(=O)O (stereo not given) | 3.88 min | 2.67 min
26 | Nc1ccn(C2CC(O)C(CO)O2)c(=O)n1 (stereo not given) | 1.29 min | 1.73 min

Row | SMILES | LC retention time [1] | LC retention time [2]
27 | O=C(O)CNC(=O)C=Cc1ccccc1 | 4.18 min | 3.49 min
28 | Cc1cn(C2CC(O)C(CO)O2)c(=O)[nH]c1=O (stereo not given) | 2.29 min | 2.34 min
29 | CC(=O)Nc1ccc(O)cc1 | 2.51 min | 2.58 min
30 | Nc1ncnc2nc[nH]c12 | 1.05 min | 1.99 min
31 | Nc1ncnc2c1ncn2C1OC(CO)C(O)C1O (stereo not given) | 1.86 min | 2.48 min
32 | COc1cc(C(=O)O)cc(OC)c1O | 3.43 min | 1.59 min
33 | CCN1CCCC1CNC(=O)c1cc(S(N)(=O)=O)ccc1OC (stereo not given) | 2.24 min | 4.29 min
34 | Nc1ccn(C2OC(CO)C3OP(=O)(O)OC32)c(=O)n1 (stereo not given) | 0.912 min | 0.926 min
35 | O=C(O)Cc1cc(O)ccc1O | 2.23 min | 1.49 min
36 | NCCc1c[nH]c2ccc(O)cc12 | 1.9 min | 2.35 min
37 | CC12CCC(=O)C=C1CCC1C2C(O)CC2(C)C1CCC2(O)C(=O)CO (stereo not given) | 5.02 min | 5.22 min
38 | COC(=O)C(Cc1ccccc1)NC(=O)C(N)CC(=O)O (stereo not given) | 3.56 min | 3.67 min
39 | O=c1ccn(C2OC(CO)C(O)C2O)c(=O)[nH]1 (stereo not given) | 1.66 min | 1.67 min
40 | O=[N+]([O-])c1ccc(O)cc1 | 4.18 min | 2.41 min
41 | Cn1c(=O)c2c([nH]c(=O)n2C)n(C)c1=O | 3 min | 2.29 min
42 | O=C(O)c1ccncc1 | 0.877 min | 0.867 min
43 | Oc1ccc2[nH]ccc2c1 | 2.9 min | 2.98 min
44 | CCOC(=O)C1=CC(OC(CC)CC)C(NC(C)=O)C(N)C1 (stereo not given) | 4.43 min | 5.35 min
45 | O=c1cc[nH]c(=O)[nH]1 | 1.18 min | 1.19 min
46 | CC(=O)NC(CC(C)C)C(=O)O (stereo not given) | 3.9 min | 2.73 min
47 | Cc1ccccc1C(=O)NCC(=O)O | 3.56 min | 2.74 min
48 | Cc1ncc(CO)c(C(=O)O)c1O | 1.97 min | 2.54 min
49 | CC(=O)NCCCCN | 0.91 min | 1.29 min
50 | Oc1cccc(O)c1O | 1.94 min | 1.93 min
51 | O=C(NO)c1ccccc1O | 3.04 min | 2.15 min
52 | O=C(O)C(O)Cc1c[nH]c2ccccc12 (stereo not given) | 3.93 min | 2.59 min

Row | SMILES | LC retention time [1] | LC retention time [2]
53 | NCCCCCCCC(=O)O | 2.59 min | 1.95 min
54 | O=C(O)CCc1c[nH]c2ccccc12 | 4.63 min | 3.13 min
55 | CCOC(=O)Cc1c[nH]c2ccccc12 | 5.21 min | 5.38 min
56 | O=C(O)c1ccccn1 | 1.14 min | 1.2 min
57 | Nc1ccccc1C(=O)O | 3.65 min | 1.76 min
58 | O=C1NS(=O)(=O)c2ccccc21 | 2.66 min | 2.3 min
59 | CN(C)CC(=O)O | 0.77 min | 0.821 min
60 | C[N+](C)(C)CC(=O)[O-] | – | 0.809 min
61 | CCC(O)C(=O)O (stereo not given) | – | 0.842 min
62 | CCCC(CCC)C(=O)O | – | 4.23 min
63 | CCC(C)C(O)C(=O)O (stereo not given) | – | 1.97 min
64 | O=C(O)CNC(=O)c1ccco1 | – | 1.7 min
65 | Nc1ncnc2c1ncn2C1OC(COP(=O)(O)OP(=O)(O)OC2OC(CO)C(O)C(O)C2O)C(O)C1O (stereo not given) | – | 0.917 min
66 | NC(=O)c1ncn(C2OC(CO)C(O)C2O)n1 (stereo not given) | – | 0.858 min
67 | CCCCC(CC)CCC(=O)O (stereo not given) | – | 5.33 min
68 | CC1=C(CCC(=O)O)c2cc3nc(cc4[nH]c(cc5[nH]c(cc1n2)c(C)c5CCC(=O)O)c(CCC(=O)O)c4C)C(CCC(=O)O)=C3C | – | 3.64 min
69 | Cc1cccc(O)c1O | – | 4 min
70 | CC(C)(O)CC(=O)O | – | 1.2 min
71 | CC(CO)C(=O)O (stereo not given) | – | 0.798 min
72 | Nc1ncnc2c1ncn2C1OC(COP(=O)(O)O)C(O)C1O (stereo not given) | – | 0.858 min
73 | O=C(O)C(O)c1cccc(O)c1 (stereo not given) | – | 0.848 min
74 | O=C(O)CCc1cccc(O)c1 | – | 2.24 min
75 | NC(=O)c1ccc[n+](C2OC(COP(=O)(O)OP(=O)(O)OCC3OC(n4cnc5c(=O)[nH]cnc54)C(O)C3O)C(O)C2O)c1 (stereo not given) | – | 1.26 min
76 | CC(C)CCC(=O)O | – | 3.06 min
